# Reference: patent US20260345619A1 (Principia Biopharma Inc., priority 2023, published 2026)
# Assay: Asthma Quality of Life Questionnaire with Standardized Activities (AQLQ(S))
# Type: in vivo, human
# Details: mITT
# Description: The AQLQ(S) is a self-administered patient reported outcome to measure the functional impairments that are most troublesome to adolescents and adults ≥12 years of age as a result of their asthma.
# Asthma Quality of Life Questionnaire with Standardized Activities (AQLQ(S)) self-administered (≥12 years)
# The AQLQ(S) was designed as a self-administered patient reported outcome to measure the functional impairments that are most troublesome to adolescents and adults ≥12 years of age as a result of their asthma. The instrument is comprised of 32 items, each rated on a 7-point Likert scales from 1 to 7. The AQLQ(S) has 4 domains. The domains and the number of items in each domain are as follows: • Symptoms (12 items) • Activity limitation (11 items) • Emotional function (5 items) • Environmental stimuli (4 items)
# A global score is calculated ranging from 1 to 7 and a score by domain. Higher scores indicate better quality of life. […] Patients were to complete the questionnaire in an electronic diary during on-site visits.
# Secondary endpoints included pre-bronchodilator FEV1 change from baseline at EOT, ACQ-5 score change from baseline, and AQLQ score change from baseline. Other secondary and exploratory endpoints are described in Table 2.
smiles,measurement,setting,value
"CC(C)(C=C(C#N)C(=O)N1CCC[C@@H](n2nc(-c3ccc(Oc4ccccc4)cc3F)c3c(N)ncnc32)C1)N1CCN(C2COC2)CC1 (mixture of isomers) [rilzabrutinib, (R)-2-[3-[4-amino-3-(2-fluoro-4-phenoxy-phenyl)pyrazolo[3,4-d]pyrimidin-1-yl]piperidine-1-carbonyl]-4-methyl-4-[4-(oxetan-3-yl)piperazin-1-yl]pent-2-enenitrile]","AQLQ(S) Activity limitation score, Mean","Week 4, 400 mg TID",5.15
same,"AQLQ(S) Activity limitation score, Median","Week 4, 400 mg TID",5.18
same,"AQLQ(S) Activity limitation score, change from baseline, LS Mean","Week 4, 400 mg TID",0.34
same,"AQLQ(S) Activity limitation score, change from baseline, Mean","Week 4, 400 mg TID",0.16
same,"AQLQ(S) Activity limitation score, change from baseline, Median","Week 4, 400 mg TID",0.09
same,"AQLQ(S) Emotional function score, Mean","Week 4, 400 mg TID",5.37
same,"AQLQ(S) Emotional function score, Median","Week 4, 400 mg TID",5.40
same,"AQLQ(S) Emotional function score, change from baseline, LS Mean","Week 4, 400 mg TID",0.35
same,"AQLQ(S) Emotional function score, change from baseline, Mean","Week 4, 400 mg TID",0.22
same,"AQLQ(S) Emotional function score, change from baseline, Median","Week 4, 400 mg TID",0.20
same,"AQLQ(S) Environmental stimuli score, Mean","Week 4, 400 mg TID",4.78
same,"AQLQ(S) Environmental stimuli score, change from baseline, LS Mean","Week 4, 400 mg TID",0.30
same,"AQLQ(S) Environmental stimuli score, change from baseline, Mean","Week 4, 400 mg TID",0.12
same,"AQLQ(S) Environmental stimuli score, change from baseline, Median","Week 4, 400 mg TID",0.25
same,"AQLQ(S) Global score, Mean","Week 4, 400 mg TID",5.16
same,"AQLQ(S) Global score, Median","Week 4, 400 mg TID",5.03
same,"AQLQ(S) Global score, change from baseline, LS Mean","Week 4, 400 mg TID",0.33
same,"AQLQ(S) Global score, change from baseline, Mean","Week 4, 400 mg TID",0.19
same,"AQLQ(S) Global score, change from baseline, Median","Week 4, 400 mg TID",0.13
same,"AQLQ(S) Symptoms score, Mean","Week 4, 400 mg TID",5.19
same,"AQLQ(S) Symptoms score, Median","Week 4, 400 mg TID",5.08
same,"AQLQ(S) Symptoms score, change from baseline, LS Mean","Week 4, 400 mg TID",0.38
same,"AQLQ(S) Symptoms score, change from baseline, Mean","Week 4, 400 mg TID",0.22
same,"AQLQ(S) Symptoms score, change from baseline, Median","Week 4, 400 mg TID",0.25
same,"AQLQ(S) Emotional function score, change from baseline, LS Mean Diff vs. placebo","Week 4, 400 mg TID, 95% CI −0.12, 0.54",0.21
same,"AQLQ(S) Symptoms score, change from baseline, LS Mean Diff vs. placebo","Week 4, 400 mg TID, 95% CI −0.14, 0.44",0.15
same,"AQLQ(S) Global score, change from baseline, LS Mean Diff vs. placebo","Week 4, 400 mg TID, 95% CI −0.18, 0.36",0.09
same,"AQLQ(S) Activity limitation score, change from baseline, LS Mean Diff vs. placebo","Week 4, 400 mg TID, 95% CI −0.20, 0.35",0.08
same,"AQLQ(S) Environmental stimuli score, change from baseline, LS Mean Diff vs. placebo","Week 4, 400 mg TID, 95% CI −0.37, 0.30",−0.03
same,"AQLQ(S) Activity limitation score, Mean","Week 8, 400 mg BID",5.72
same,"AQLQ(S) Activity limitation score, Median","Week 8, 400 mg BID",5.91
same,"AQLQ(S) Activity limitation score, change from baseline, LS Mean","Week 8, 400 mg BID",0.89
same,"AQLQ(S) Activity limitation score, change from baseline, Mean","Week 8, 400 mg BID",0.96
same,"AQLQ(S) Activity limitation score, change from baseline, Median","Week 8, 400 mg BID",0.82
same,"AQLQ(S) Emotional function score, Mean","Week 8, 400 mg BID",6.12
same,"AQLQ(S) Emotional function score, Median","Week 8, 400 mg BID",6.20
same,"AQLQ(S) Emotional function score, change from baseline, LS Mean","Week 8, 400 mg BID",1.06
same,"AQLQ(S) Emotional function score, change from baseline, Mean","Week 8, 400 mg BID",0.87
same,"AQLQ(S) Emotional function score, change from baseline, Median","Week 8, 400 mg BID",0.60
same,"AQLQ(S) Environmental stimuli score, Mean","Week 8, 400 mg BID",5.19
same,"AQLQ(S) Environmental stimuli score, change from baseline, LS Mean","Week 8, 400 mg BID",0.66
same,"AQLQ(S) Environmental stimuli score, change from baseline, Mean","Week 8, 400 mg BID",0.73
same,"AQLQ(S) Environmental stimuli score, change from baseline, Median","Week 8, 400 mg BID",0.50
same,"AQLQ(S) Global score, Mean","Week 8, 400 mg BID",5.79
same,"AQLQ(S) Global score, Median","Week 8, 400 mg BID",5.88
same,"AQLQ(S) Global score, change from baseline, LS Mean","Week 8, 400 mg BID",0.92
same,"AQLQ(S) Global score, change from baseline, Mean","Week 8, 400 mg BID",0.90
same,"AQLQ(S) Global score, change from baseline, Median","Week 8, 400 mg BID",0.63
same,"AQLQ(S) Symptoms score, Mean","Week 8, 400 mg BID",5.93
same,"AQLQ(S) Symptoms score, Median","Week 8, 400 mg BID",6.00
same,"AQLQ(S) Symptoms score, change from baseline, LS Mean","Week 8, 400 mg BID",0.99
same,"AQLQ(S) Symptoms score, change from baseline, Mean","Week 8, 400 mg BID",0.91
same,"AQLQ(S) Symptoms score, change from baseline, Median","Week 8, 400 mg BID",0.83
same,"AQLQ(S) Environmental stimuli score, change from baseline, LS Mean Diff vs. placebo","Week 8, 400 mg BID, 95% CI 0.03, 1.33",0.68
same,"AQLQ(S) Symptoms score, change from baseline, LS Mean Diff vs. placebo","Week 8, 400 mg BID, 95% CI 0.35, 1.18",0.76
same,"AQLQ(S) Global score, change from baseline, LS Mean Diff vs. placebo","Week 8, 400 mg BID, 95% CI 0.39, 1.20",0.79
same,"AQLQ(S) Activity limitation score, change from baseline, LS Mean Diff vs. placebo","Week 8, 400 mg BID, 95% CI 0.39, 1.21",0.80
same,"AQLQ(S) Emotional function score, change from baseline, LS Mean Diff vs. placebo","Week 8, 400 mg BID, 95% CI 0.42, 1.54",0.98
same,"AQLQ(S) Activity limitation score, Mean","Week 8, 400 mg TID",5.28
same,"AQLQ(S) Activity limitation score, Median","Week 8, 400 mg TID",5.27
same,"AQLQ(S) Activity limitation score, change from baseline, LS Mean","Week 8, 400 mg TID",0.42
same,"AQLQ(S) Activity limitation score, change from baseline, Mean","Week 8, 400 mg TID",0.29
same,"AQLQ(S) Activity limitation score, change from baseline, Median","Week 8, 400 mg TID",0.36
same,"AQLQ(S) Emotional function score, Mean","Week 8, 400 mg TID",5.52
same,"AQLQ(S) Emotional function score, Median","Week 8, 400 mg TID",5.40
same,"AQLQ(S) Emotional function score, change from baseline, LS Mean","Week 8, 400 mg TID",0.51
same,"AQLQ(S) Emotional function score, change from baseline, Mean","Week 8, 400 mg TID",0.37
same,"AQLQ(S) Emotional function score, change from baseline, Median","Week 8, 400 mg TID",0.40
same,"AQLQ(S) Environmental stimuli score, Mean","Week 8, 400 mg TID",4.90
same,"AQLQ(S) Environmental stimuli score, change from baseline, LS Mean","Week 8, 400 mg TID",0.36
same,"AQLQ(S) Environmental stimuli score, change from baseline, Mean","Week 8, 400 mg TID",0.24
same,"AQLQ(S) Environmental stimuli score, change from baseline, Median","Week 8, 400 mg TID",0.25
